# Assay results taken from patent US20240239786A1, “COMPOSITIONS AND METHODS FOR THE TREATMENT AND PREVENTION OF CANCER” (Yale University, priority 2021, published 2024).
# How the values were obtained:
# Hs 832(C).T cells = assay: Caspase 3/7 assay, Hs 832(C).T; format: cell-based; conditions: benign ovarian cyst fibroblast cells Hs 832(C).T
# Procedure: Cells were pre-treated with 30 μM DB4 for 1 hr and then treated with various concentrations of olaparib for 72 hr. Cell survival was determined by MTS cytotoxicity assay. Data are means±SD (N=3-4). […] EOB calculation was used to quantify the synergy of the combination of DB4 and various concentrations of olaparib in PEO1 or PEO4 cells as shown in FIG. 8A. EOB>0, synergism; EOB=0, additivity; EOB<0, antagonism. […] Cells were pre-treated with 30 μM DB4-F for 1 hr and then treated with various concentrations of olaparib for 72 hr. Cell survival was determined by MTS cytotoxicity assay. Data are means±SD (N=3-4). […] EOB calculation was used to quantify the synergy of the combination of DB4-F and various concentrations of olaparib in PEO1 or PEO4 cells as shown in FIG. 8B. […] Cell survival was determined by MTS cytotoxicity assay. […] Caspase 3/7 activity was expressed as RLU per μg/μl protein. […] Caspase 3/7 activity was expressed as RLU per μg/μl protein. […] Cells were treated and caspase 3/7 activity was measured as described in FIG. 8G and FIG. 8H.
# Furthermore, the effects of DB4 on olaparib-induced apoptosis at 24 hr were evaluated. […]
# The assay was performed as described previously (Lin Z P et al., 2018, PLOS One, 13:e0207399). […] Total protein concentration of cell lysates was determined as described above. Caspase 3/7 activity was expressed as luminescence units (RLU) per μg/μL protein for each sample.
# [1] = biological target: T1, ribonucleotide reductase (RNR) (Homo sapiens, UniProt P31350); conditions: fold more potent than hydroxyurea; cited from earlier work
# T1 sequence (P31350 1-389): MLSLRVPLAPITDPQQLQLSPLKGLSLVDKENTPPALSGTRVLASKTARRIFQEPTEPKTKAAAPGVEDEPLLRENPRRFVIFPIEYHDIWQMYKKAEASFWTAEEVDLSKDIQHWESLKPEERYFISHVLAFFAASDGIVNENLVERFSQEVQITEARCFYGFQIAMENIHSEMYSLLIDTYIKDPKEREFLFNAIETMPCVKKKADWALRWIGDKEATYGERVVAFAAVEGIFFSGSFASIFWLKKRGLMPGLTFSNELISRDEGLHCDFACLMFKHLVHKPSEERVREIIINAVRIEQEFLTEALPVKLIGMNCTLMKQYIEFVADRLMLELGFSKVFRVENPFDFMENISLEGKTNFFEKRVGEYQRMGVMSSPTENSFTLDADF
Structure (SMILES),effect on apoptotic effects of olaparib (caspase 3/7) (Hs 832(C).T cells),potency relative to the RNR inhibitor hydroxyurea [1]
"C=CCn1c(SCc2cccc(Cl)c2)nnc1C1CCN(Cc2nc3ccccc3s2)CC1 [DB4, 2-[(4-{4-allyl-5-[(3-chlorobenzyl)thio]-4H-1,2,4-triazol-3-yl}-1-piperidinyl)methyl]-1,3-benzothiazole]",did not enhance the apoptotic effects of olaparib,–
"NC(=S)NN=Cc1ncccc1N [triapine, 3-aminopyridine-2-carboxaldehyde-thiosemicarbazone, reference compound]",–,"1,000 times"
